This note sets out measurements from ChEMBL document CHEMBL1128924, “Some benzenesulfonamido-substituted valerophenones that are selective antagonists for the 5-HT2C receptor” (Bioorg Med Chem Lett, 1996).

Common to all, as to format: cell-based
For assay [1], the target named is T1, 5-hydroxytryptamine receptor 2C (Homo sapiens, UniProt P28335).
T1 sequence (P28335 whole entry): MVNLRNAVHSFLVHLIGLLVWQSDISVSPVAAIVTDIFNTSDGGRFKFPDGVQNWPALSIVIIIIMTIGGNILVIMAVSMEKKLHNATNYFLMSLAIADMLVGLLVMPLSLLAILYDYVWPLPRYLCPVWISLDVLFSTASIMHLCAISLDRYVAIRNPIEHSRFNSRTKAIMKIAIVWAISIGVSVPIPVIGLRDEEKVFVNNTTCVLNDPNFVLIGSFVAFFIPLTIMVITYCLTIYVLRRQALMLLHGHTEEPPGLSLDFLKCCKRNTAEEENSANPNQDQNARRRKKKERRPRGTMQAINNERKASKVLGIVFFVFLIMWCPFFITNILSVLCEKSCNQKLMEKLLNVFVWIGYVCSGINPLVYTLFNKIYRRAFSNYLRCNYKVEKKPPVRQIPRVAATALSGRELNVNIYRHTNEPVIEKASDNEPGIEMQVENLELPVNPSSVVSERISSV
The assay can be described thus: Displacement of [3H]mesulergine from human cloned 5-hydroxytryptamine 2C receptor expressed in CHO-K1 cells.

In assay [2] the target is 5-hydroxytryptamine receptor 2B (Homo sapiens, UniProt P41595). In words: Displacement of [3H]-5-5HT from human cloned 5-hydroxytryptamine 2B receptor expressed in CHO-K1 cells.
Chain of 5-hydroxytryptamine receptor 2B (P41595 whole entry): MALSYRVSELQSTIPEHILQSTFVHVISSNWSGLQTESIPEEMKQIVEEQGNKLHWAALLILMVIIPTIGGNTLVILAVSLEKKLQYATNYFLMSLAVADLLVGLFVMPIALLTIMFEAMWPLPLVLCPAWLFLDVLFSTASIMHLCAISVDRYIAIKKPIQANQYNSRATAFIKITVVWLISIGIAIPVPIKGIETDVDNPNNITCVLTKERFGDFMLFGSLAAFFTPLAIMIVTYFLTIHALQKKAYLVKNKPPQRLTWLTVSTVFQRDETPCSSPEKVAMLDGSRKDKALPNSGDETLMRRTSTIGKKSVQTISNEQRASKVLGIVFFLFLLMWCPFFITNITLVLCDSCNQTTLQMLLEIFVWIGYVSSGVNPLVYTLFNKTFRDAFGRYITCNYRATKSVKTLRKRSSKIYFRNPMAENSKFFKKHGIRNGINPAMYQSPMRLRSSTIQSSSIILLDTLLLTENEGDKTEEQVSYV
For assay [3], the target named is T2, 5-hydroxytryptamine receptor 2A (Homo sapiens, UniProt P28223). In words: Compound was evaluated for displacement of [3H]ketanserin from human cloned 5-hydroxytryptamine 2A receptor in transfected CHO-K1 cells.
T2 sequence (P28223 whole entry): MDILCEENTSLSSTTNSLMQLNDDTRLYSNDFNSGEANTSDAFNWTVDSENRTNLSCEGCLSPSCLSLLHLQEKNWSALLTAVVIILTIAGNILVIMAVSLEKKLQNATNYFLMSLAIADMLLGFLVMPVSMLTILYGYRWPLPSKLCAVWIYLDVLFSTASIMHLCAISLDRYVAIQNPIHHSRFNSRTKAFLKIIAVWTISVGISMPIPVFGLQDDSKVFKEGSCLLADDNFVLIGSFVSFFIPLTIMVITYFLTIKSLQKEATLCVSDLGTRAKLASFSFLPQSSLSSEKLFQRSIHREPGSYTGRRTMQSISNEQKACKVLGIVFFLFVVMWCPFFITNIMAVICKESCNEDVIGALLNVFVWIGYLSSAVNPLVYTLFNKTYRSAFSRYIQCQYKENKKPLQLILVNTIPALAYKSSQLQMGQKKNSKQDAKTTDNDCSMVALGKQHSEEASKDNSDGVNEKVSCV
In assay [4] the target is T2, 5-hydroxytryptamine receptor 2A. The assay can be described thus: Displacement of [3H]-ketanserin from human cloned 5-hydroxytryptamine 2A receptor expressed in CHO-K1 cells.
The target of assay [5] is T3, 5-hydroxytryptamine receptor 2C (Rattus norvegicus, UniProt P08909).
T3 sequence (P08909 whole entry): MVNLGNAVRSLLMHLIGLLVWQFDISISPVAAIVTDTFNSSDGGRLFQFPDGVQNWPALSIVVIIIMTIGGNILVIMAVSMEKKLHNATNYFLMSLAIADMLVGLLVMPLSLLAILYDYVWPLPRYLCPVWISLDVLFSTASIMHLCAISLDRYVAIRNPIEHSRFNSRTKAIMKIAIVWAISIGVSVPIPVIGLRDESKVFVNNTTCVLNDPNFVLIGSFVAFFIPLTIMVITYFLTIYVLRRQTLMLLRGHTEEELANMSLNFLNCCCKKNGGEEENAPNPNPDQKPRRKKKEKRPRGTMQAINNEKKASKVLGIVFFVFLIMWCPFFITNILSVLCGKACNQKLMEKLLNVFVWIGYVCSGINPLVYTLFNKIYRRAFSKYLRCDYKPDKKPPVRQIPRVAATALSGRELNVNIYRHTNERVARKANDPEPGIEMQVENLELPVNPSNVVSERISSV
The assay can be described thus: Compound was evaluated for displacement of [3H]mesulergine from cloned rat 5-hydroxytryptamine 2C receptor in transfected CHO-K1 cells.

The target of assay [6] is 5-hydroxytryptamine receptor 2A (Rattus norvegicus, UniProt P14842). The assay can be described thus: Compound was evaluated for displacement of [3H]ketanserin from cloned rat 5-hydroxytryptamine 2A receptor in transfected CHO-K1 cells.
Chain of 5-hydroxytryptamine receptor 2A (Rattus norvegicus, UniProt P14842) (P14842 whole entry, looked up): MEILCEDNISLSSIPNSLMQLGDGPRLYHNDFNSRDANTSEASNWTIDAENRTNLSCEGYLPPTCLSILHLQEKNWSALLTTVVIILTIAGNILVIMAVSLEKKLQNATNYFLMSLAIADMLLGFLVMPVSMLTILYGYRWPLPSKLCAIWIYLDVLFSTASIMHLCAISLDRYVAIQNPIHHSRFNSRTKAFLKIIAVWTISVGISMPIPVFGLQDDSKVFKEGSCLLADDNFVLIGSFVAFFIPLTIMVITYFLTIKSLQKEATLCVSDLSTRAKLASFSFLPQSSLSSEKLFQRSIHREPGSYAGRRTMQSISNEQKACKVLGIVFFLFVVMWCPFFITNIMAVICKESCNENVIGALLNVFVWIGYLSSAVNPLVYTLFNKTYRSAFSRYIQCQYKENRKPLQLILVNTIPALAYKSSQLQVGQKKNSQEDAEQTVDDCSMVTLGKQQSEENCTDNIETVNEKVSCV

Where only a bound is given, the exact number is not on record here.

Turning to `COc1ccc(OC)c(C(=O)CCCCN2CCC3(CC2)NC(=O)NC3=O)c1`, the results for the Ki in assay [1], in assay [2] and in assay [3] were 3.16 nM, 126 nM and 20 nM, respectively.

With `COc1cc(OC)c(C(=O)CCCCN2CCC3(CC2)NC(=O)NC3=O)cc1NS(=O)(=O)c1ccccc1Cl`, the Ki in assay [1] is 398 nM; in assay [2], 398 nM; in assay [4] it was > 10000 nM.

As for `COc1cc(OC)c(C(=O)CCCCN2CCC3(CC2)NC(=O)NC3=O)cc1NS(=O)(=O)c1cccc(C(F)(F)F)c1`, the Ki in assay [5] is 100 nM; in assay [6], 794 nM.

Regarding `COc1cc(OC)c(C(=O)CCCCN2CCC3(CC2)NC(=O)NC3=O)cc1NS(=O)(=O)c1ccc(F)cc1`, the Ki is 10 nM in assay [1], 126 nM in assay [2] and > 10000 nM in assay [4].

Consider `COc1cc(OC)c(-c2ccccc2)cc1C(=O)CCCCN1CCC2(CC1)NC(=O)NC2=O`, for which the Ki in assay [1] was 10 nM; in assay [2] it was 100 nM; in assay [3], 398 nM.

With `COc1cc(OC)c(C(=O)CCCCN2CCC3(CC2)NC(=O)NC3=O)cc1NS(=O)(=O)c1cccc(Cl)c1`, the Ki in assay [1] is 50.1 nM; in assay [2] it was 200 nM; in assay [4], 2000 nM.

With `COc1ccc(NS(=O)(=O)c2ccc(Cl)cc2)cc1C(=O)CCCCN1CCC2(CC1)NC(=O)NC2=O`, the Ki was 2 nM in assay [5] and 7.94 nM in assay [6].

`COc1cc(OC)c(C(=O)CCCCN2CCC3(CC2)NC(=O)NC3=O)cc1NS(=O)(=O)c1ccccc1`: the Ki in assay [1] is 31.6 nM; in assay [2], 631 nM; in assay [4], 3160 nM.

For `COc1cc(OC)c(C(=O)CCCCN2CCC3(CC2)NC(=O)NC3=O)cc1NS(=O)(=O)c1ccc(C(C)=O)cc1`, the values for the Ki in assay [1], in assay [2] and in assay [4] were 39.8 nM, 251 nM and > 10000 nM, respectively.

`COc1ccc(NS(=O)(=O)c2ccccc2)cc1C(=O)CCCCN1CCC2(CC1)NC(=O)NC2=O`: the Ki in assay [5] was 6.31 nM; in assay [6] it was 20 nM.

In the case of `COc1ccc(Oc2ccccc2)cc1C(=O)CCCCN1CCC2(CC1)NC(=O)NC2=O`, the Ki in assay [5] was 3.16 nM; in assay [6], 7.94 nM.

Turning to `COc1cc(OC)c(C(=O)CCCCN2CCC3(CC2)NC(=O)NC3=O)cc1NS(=O)(=O)c1ccc(Cl)cc1`, the inhibition constant (Ki) in assay [1] is 5.01 nM; in assay [2], 79.4 nM; in assay [4], 794 nM.

As for `COc1cc(OC)c(C(=O)CCCCN2CCC3(CC2)NC(=O)NC3=O)cc1NS(=O)(=O)c1ccc(C)cc1`, the values for the Ki in assay [1], in assay [2] and in assay [4] were 10 nM, 316 nM and 2510 nM, respectively.

Consider `COc1cc(OC)c(C(=O)CCCCN2CCC3(CC2)NC(=O)NC3=O)cc1NS(=O)(=O)c1ccc(C#N)cc1`, for which the Ki in assay [1] is 7.94 nM; in assay [2], 398 nM; in assay [4], 794 nM.

For `COc1cc(OC)c(C(=O)CCCCN2CCC3(CC2)NC(=O)NC3=O)cc1NS(=O)(=O)c1ccc(S(N)(=O)=O)cc1`, the results for the Ki in assay [1], in assay [2] and in assay [4] were 79.4 nM, 3160 nM and > 10000 nM, respectively.

Regarding `COc1ccc(Cl)cc1C(=O)CCCCN1CCC2(CC1)NC(=O)NC2=O`, the Ki is 3.98 nM in assay [1], 50.1 nM in assay [2] and 12.6 nM in assay [3].

Regarding `COc1cc(OC)c(C(=O)CCCCN2CCC3(CC2)NC(=O)NC3=O)cc1N`, the figures for the inhibition constant Ki in assay [5] and in assay [6] were 39.8 nM and 126 nM, respectively.

In the case of `COc1ccc(S(=O)(=O)Nc2cc(C(=O)CCCCN3CCC4(CC3)NC(=O)NC4=O)c(OC)cc2OC)cc1`, the inhibition constant Ki in assay [1] was 20 nM; in assay [2], 1260 nM; in assay [4] it was 2000 nM.

For `COc1cc(Cl)ccc1C(=O)CCCCN1CCC2(CC1)NC(=O)NC2=O`, the inhibitory constant (Ki) in assay [1] is 6.31 nM; in assay [2] it was 200 nM; in assay [3] it was 126 nM.

Take `COc1ccccc1C(=O)CCCCN1CCC2(CC1)NC(=O)NC2=O`: the Ki in assay [1], in assay [2] and in assay [3] was > 10000 nM in each case.

As to `COc1cc(OC)c(C(=O)CCCCN2CCC3(CC2)NC(=O)NC3=O)cc1NS(=O)(=O)c1ccc(OC(F)(F)F)cc1`, the Ki in assay [1] was 1.58 nM; in assay [2], 398 nM; in assay [4], 1000 nM.

As for `COc1cc(OC)c(C(=O)CCCCN2CCC3(CC2)NC(=O)NC3=O)cc1Cl`, the inhibition constant (Ki) in assay [5] is 0.631 nM; in assay [6], 5.01 nM.

`COc1cc(Cl)c(Cl)cc1C(=O)CCCCN1CCC2(CC1)NC(=O)NC2=O`: the Ki in assay [1] was 0.251 nM; in assay [2], 6.31 nM; in assay [3] it was 6.31 nM.

With `COc1cc(OC)c(C(=O)CCCCN2CCC3(CC2)NC(=O)NC3=O)cc1NS(=O)(=O)c1ccc(C(C)C)cc1`, the values for the Ki in assay [1], in assay [2] and in assay [4] were 1.58 nM, 1260 nM and 1260 nM, respectively.

Regarding `COc1cc(OC)c(C(=O)CCCCN2CCC3(CC2)NC(=O)NC3=O)cc1NS(=O)(=O)c1ccc(NC(C)=O)cc1`, the Ki in assay [1] is 39.8 nM; in assay [2], 316 nM; in assay [4], > 10000 nM.

With `COc1ccc(-c2ccccc2)cc1C(=O)CCCCN1CCC2(CC1)NC(=O)NC2=O`, the values for the inhibition constant Ki in assay [1], in assay [2] and in assay [3] were 0.2 nM, 10 nM and 1 nM, respectively.

As to `CN1C[C@@H](NS(=O)(=O)N(C)C)C[C@@H]2c3cccc4c3c(cn4C)C[C@H]21` [MESULERGINE], the Ki in assay [2] is 2 nM; in assay [4], 20 nM.

For the compound `COc1cc(OC)c(C(=O)CCCCN2CCC3(CC2)NC(=O)NC3=O)cc1NS(=O)(=O)c1ccc(C(F)(F)F)cc1` [RS-102,221], the values for the Ki in assay [1], in assay [2] and in assay [4] were 2 nM, 316 nM and 631 nM, respectively.

Turning to `O=C(CCCN1CCC2(CC1)C(=O)NCN2c1ccccc1)c1ccc(F)cc1` [SPIPERONE], the Ki was 631 nM in assay [1] and 1260 nM in assay [2].
